Here are results for 13 compounds from publication PMC11215307, “Targeting dermatophyte Cdc42 and Rac GTPase signaling to hinder hyphal elongation and virulence” (iScience, 2024).

pIC50: −log10 of the molar value. Entries after “also recorded” stand apart in the source; their conditions may differ.

Experiment [1] concerns T. rubrum conidial germination. In words: T. rubrum conidia germination assay. It counts as cell-based, Trichophyton rubrum. The following applies: for Effect on conidial germination in T. rubrum: in cellulo screen of small GTPase inhibitors; for pIC50: overnight incubation at 28°C in Sabouraud medium, calcofluor white staining. As for the experimental part:
Fungal conidia (2 × 10^6) were subjected to an overnight incubation at 28°C in Sabouraud medium, supplemented with 1% DMSO (control) or the Rac and/or Cdc42 inhibitors; 10, 32, and 100 μM EHop-016; 100, 320, and 1000 μM AZA1; 10, 32, and 100 μM EHT1864; 10, 100, and 1000 μM CASIN; 200, 500, and 1000 μM NSC23766; 20, 200, and 2000 μM ketorolac; 100 μM MBQ-167; 1 and 10 μM ML-141; 1000 μM ZCL278; and 50 μM ITX3. Following the incubation, the fungal conidia were washed twice with saline and then stained with 0.2 mM calcofluor white. The germinated and ungerminated conidia were subsequently observed and counted under a fluorescent microscope (Olympus BX53).

In experiment [2] the test system is T. rubrum mycelial growth. In words: Mycelial growth inhibition on modified 1/10 Sabouraud glucose agar. It counts as cell-based, Trichophyton rubrum. The following applies: in cellulo screen of small GTPase inhibitors. As for the experimental part:
Trichophyton rubrum CBS118892, Escherichia coli BL21, and Agrobacterium tumefaciens EHA105 were used.[74]^,[78]^,[79] E. coli BL21 was cultured in LB medium with appropriate antibiotics at 37°C. A. tumefaciens was cultured in LB or Agrobacterium induction medium supplemented with 0.2 mM acetosyringone at 28°C.[73] T. rubrum was cultured at 28°C. Conidia of T. rubrum were prepared using a previously described method.[80] Sabouraud agar or RPMI with MOPS agar was used for hyphal formation. To evaluate mycelial growth inhibition by inhibitors, a modified 1/10 Sabouraud glucose agar (containing 0.2% bacto peptone, 0.1% glucose, 0.1% KH2PO4, 0.1% MgSO4 7H2O, 1.5% bacto agar, pH unadjusted) was used.

Another experiment deals with TrCdc42. Description: Guanine nucleotide exchange assay of TrCdc42-His promoted by TrCdc24 DH-PH (bodipy-FL GTP fluorescence). To be noted: for pIC50: guanine nucleotide exchange of TrCdc42 by TrCdc24, fluorescence at 60 min; for Selectivity between fungal Cdc42 and Rac: comparison of TrCdc42 and TrRac IC50 (Table 1). It counts as biochemical, Trichophyton rubrum. As for the experimental part: (§1) One μM of TrRac or TrCdc42-His was mixed with 0.1 μM bodipy-FL GTP (Thermo Fisher, Waltham, MA, USA) in Buffer A and allowed to equilibrate for 3 min at 20°C–25°C. Ammonium sulfate, EDTA, or recombinant TrCdc24 DH-PH proteins were incubated with the compounds or vehicles alone (final DMSO concentration: 1%) at the indicated concentrations in the reaction buffer for 20 min at room temperature. The reaction was initiated by combining TrRac or TrCdc42/bodipy-FL GTP (100 μL) with Cdc24DH-PH (50 μL) at room temperature. The change in bodipy-FL-GTP fluorescence (excitation: 485 nm, emission: 535 nm) was monitored for 60 min using a Berthold tristar2 LB942.
(§2) Statistical analyses were conducted using Microsoft Excel and Prism 10, GraphPad. All experiments were performed more than three times. Statistical significance was determined using Student’s t test, one-way analysis of variance, and Tukey–Kramer test. IC50 values were ascertained by plotting the fluorescent intensity (% of control) at 60 min using a specific formula: IC50=x2−(x2/x1)^(50−y2/y2−y1)

The test system of the next experiment is TrRac. In words: Guanine nucleotide exchange assay of TrRac promoted by TrCdc24 DH-PH (bodipy-FL GTP fluorescence). It counts as biochemical, Trichophyton rubrum. The following applies: fluorescence at 60 min. As for the experimental part:
as §1, §2

For another experiment, the system named is T. rubrum. In words: Invertebrate (silkworm) infection model of dermatophytosis. The class given is in vivo, Bombyx mori. The following applies: conidia (5 × 10^6) injected into silkworm hemolymph. The method, then: Eggs from silkworms were procured from Ehime-Sansh Co., Ltd. (Japan) and reared following a method described previously.[86]^,[87] Fifth instar silkworm larvae were nourished with an artificial diet (Silkmate 2S; Ehime-Sanshu Co., Ltd., Japan) overnight.[88]^,[89] Dermatophyte infection was conducted in accordance with a previously outlined procedure.[53] Conidia (5 × 10^6) of T. rubrum were injected into the silkworm hemolymph.

For experiment [3], the system named is T. rubrum growth on human nail fragments. In words: In vitro nail infection assay. The class given is cell-based, Trichophyton rubrum. The following applies: 2.6% (60 mM) EHop-016, four applications every 24 h, observed after 36 days at 28°C, versus vehicle. As for the experimental part: The conidial suspension (1 × 10^4/10 μL/nail fragment) of T. rubrum was administered to autoclaved nail fragments obtained from an adult volunteer (ethics approval, No. R3-6, Musashino University, Japan) and incubated at 28°C. After 24 h, either the vehicle (30% DMSO/5% Tween 80) or 60 mM EHop-016 was applied to the nail fragment. A total of four applications were administered every 24 h. The nails were examined after 36 days of incubation.

As to NAV2729, in experiment [1], the “Effect on conidial germination in T. rubrum” value (“Effect on conidial germination” for short) is “did not”. For the same compound, the “Effect on mycelial growth in T. rubrum” value in experiment [2] was “did not”.
For `C[C@H]1CCC/C=C/[C@@H]2C[C@H](O)C[C@H]2[C@H](O)/C=C/C(=O)O1` [Brefeldin A], in experiment [1], the “Effect on conidial germination” value is “did not”. For the same compound, the “Effect on mycelial growth in T. rubrum” value in experiment [2] is on record as “did not”.
Usually pIC50 stands for the negative decadic logarithm of the IC50, by convention in mol/L. As to `CCN(CC)CCCC(C)Nc1nc(C)cc(Nc2ccc3nc(C)cc(N)c3c2)n1` (centres unmarked) [NSC23766], the pIC50 with TrCdc42 was 3.43; with TrRac, 3.32; in experiment [1] (Trichophyton rubrum), 3.19. In addition, in experiment [1], the “Effect on conidial germination” value is recorded as “hindered”. For the same compound, in experiment [2], the “Effect on mycelial growth in T. rubrum” value is “hindered”.
On to Rhosin, for which the “Effect on conidial germination” value in experiment [1] is on record as “did not”. Moreover, the “Effect on mycelial growth in T. rubrum” value in experiment [2] is “did not”.
For the compound `Cc1cc2cc(Nc3ccnc(Nc4ccc5[nH]c(C)cc5c4)n3)ccc2[nH]1` [AZA1], the pIC50 in the experiment with TrCdc42 was 3.83; in the experiment with TrRac, 3.90; in experiment [1] (Trichophyton rubrum), 3.90. Further, the “Effect on conidial germination” value in experiment [1] was “hindered”. Also, the “Effect on mycelial growth in T. rubrum” value in experiment [2] was “hindered”.
As to `Cc1cc(C)nc(NS(=O)(=O)c2ccc(NC(=S)NC(=O)COc3ccc(Br)cc3Cl)cc2)n1` [ZCL278], the pIC50 (in the experiment with TrCdc42; with TrRac; in experiment [1]) was less than 3.00 throughout.
`Cc1cc(/C=c2/sc3nc4ccccc4n3c2=O)c(C)n1-c1ccccc1` [ITX3]: the negative-log IC50 (pIC50) (with TrCdc42; in the experiment with TrRac; in experiment [1]) was less than 4.30 in each case.
Turning to `O=c1cc(CN2CCOCC2)occ1OCCCCCSc1ccnc2cc(C(F)(F)F)ccc12` [EHT1864], in the experiment on TrCdc42, the “Selectivity between fungal Cdc42 and Rac” value is recorded as “higher selectivity for Cdc42 than for Rac”. In addition, the pIC50 in the experiment with TrCdc42 is 3.81; in the experiment with TrRac, less than 3.00; in experiment [1] (Trichophyton rubrum), 4.80. Also, the “Effect on conidial germination” value in experiment [1] is “hindered”. In addition, the “Effect on mycelial growth in T. rubrum” value in experiment [2] was “hindered”.
Take `CCn1c2ccccc2c2cc(-n3nncc3-c3ccccc3)ccc21` [MBQ-167]: the negative logarithm of the IC50 (pIC50) (in the experiment on TrCdc42; in the experiment with TrRac; in experiment [1] (Trichophyton rubrum)) was less than 4.00 each time. Further, the “Inhibitory activity in conidial germination inhibition assay” value in experiment [1] (at 100 μM) is reported as “did not show any inhibitory activity”.
`OCCNC1CCCc2c1[nH]c1ccc(-c3ccccc3)cc21` (centres unmarked) [CASIN]: the pIC50 in the experiment on TrCdc42 is 3.72; in the experiment on TrRac, 3.29; in experiment [1] it was 4.70.
As to `O=C(c1ccccc1)c1ccc2n1CCC2C(=O)O` (centres unmarked) [Ketorolac], the pIC50 was 3.05 in the experiment with TrCdc42, 2.85 in the experiment with TrRac and 3.44 in experiment [1] (Trichophyton rubrum).
With `COc1ccc(C2CC(c3ccccc3)=NN2c2ccc(S(N)(=O)=O)cc2)cc1` (centres unmarked) [ML-141], the pIC50 in the experiment on TrCdc42 was less than 3.00; in the experiment with TrRac it was less than 3.00; in experiment [1] it was 5.77.
For `CCn1c2ccccc2c2cc(Nc3ccnc(NCCCN4CCOCC4)n3)ccc21` [EHop-016], the “Selectivity between fungal Cdc42 and Rac” value in the experiment with TrCdc42 is recorded as “higher selectivity for Cdc42 than for Rac”. Moreover, the pIC50 in the experiment on TrCdc42 is 4.40; in the experiment on TrRac, 3.86; in experiment [1] (Trichophyton rubrum), 4.35. Also, the “Survival of silkworms infected with T. rubrum” value in the experiment on T. rubrum is “significantly extended the survival”. Further, in experiment [3], the “T. rubrum growth on human nails” value is “no fungal lawn was observed; also recorded: lesser T. rubrum growth on the nails”.
